Several values for one entry are separate records, joined by “and”; a condition that tells them apart may be missing. Equal values may be shown once. ± gives the uncertainty stated by the source.
Experiments:
[1] = xn = mol fraction of the nth substance listed

CCn1cc[n+](C)c1.O=C([O-])[C@@H]1CCCN1
101 kPa
Details	viscosity [mPa·s]
298.15 K	1195 ± 130
303.15 K	771.5 ± 72

CCOC(=O)c1ccccc1O
Details	viscosity [mPa·s]
303.15 K, 101 kPa	3.117 ± 0.036

CCN(CC)CC
Details	viscosity
293.15 K, 100 kPa	0.3608 ± 0.004 mPa·s
293.15 K, 101 kPa	0.369 ± 0.01 mPa·s
297.85 K, 101 kPa	0.352 ± 0.004 mPa·s
298 K, 101.33 kPa	0.35 ± 0.007 mPa·s
298.15 K, 100 kPa	0.353 ± 0.1 mPa·s and 0.3534 ± 0.15 mPa·s (2×)
298.15 K, 101 kPa	0.344 ± 0.007 mPa·s
302.85 K, 101 kPa	0.335 ± 0.004 mPa·s
303.15 K, 100 kPa	0.339 ± 0.1 mPa·s and 0.3387 ± 0.15 mPa·s (2×)
303.15 K, 101 kPa	0.333 ± 0.01 mPa·s
303.15 K, 101.33 kPa	0.3592 ± 0.004 mPa·s and 0.3592 ± 0.005 mPa·s
307.85 K, 101 kPa	0.319 ± 0.004 mPa·s
308.15 K, 100 kPa	0.322 ± 0.1 mPa·s and 0.3221 ± 0.15 mPa·s (2×)
312.95 K, 101 kPa	0.304 ± 0.004 mPa·s
313.15 K, 101 kPa	0.302 ± 0.01 mPa·s
313.15 K, 101.33 kPa	0.3249 ± 0.0037 mPa·s and 0.3249 ± 0.0049 mPa·s
317.75 K, 101 kPa	0.291 ± 0.003 mPa·s
322.75 K, 101 kPa	0.278 ± 0.003 mPa·s
323.15 K, 101 kPa	0.275 ± 0.01 mPa·s

CCCCCCCC(=O)[O-].CC[NH+](C(C)C)C(C)C
Details	viscosity [mPa·s]
298.15 K, 101.3 kPa	13.52 ± 0.84

CCCOC(C)=O + CCCCCCCCO
viscosity [mPa·s], [1], 101 kPa
Details	x2 = 0.075	x2 = 0.1542	x2 = 0.2382	x2 = 0.3272	x2 = 0.4218	x2 = 0.5225	x2 = 0.6299	x2 = 0.7448	x2 = 0.8678
298.15 K	0.692 ± 0.042	0.851 ± 0.051	1.053 ± 0.063	1.316 ± 0.079	1.666 ± 0.1	2.143 ± 0.13	2.823 ± 0.17	3.811 ± 0.23	5.28 ± 0.32
303.15 K	0.638 ± 0.038	0.776 ± 0.047	0.955 ± 0.058	1.185 ± 0.071	1.488 ± 0.09	1.897 ± 0.11	2.47 ± 0.15	3.302 ± 0.2	4.526 ± 0.27
308.15 K	0.584 ± 0.035	0.705 ± 0.043	0.862 ± 0.052	1.061 ± 0.064	1.323 ± 0.08	1.671 ± 0.1	2.154 ± 0.13	2.848 ± 0.17	3.868 ± 0.23
313.15 K	0.533 ± 0.032	0.638 ± 0.038	0.774 ± 0.047	0.95 ± 0.057	1.177 ± 0.071	1.475 ± 0.089	1.885 ± 0.11	2.468 ± 0.15	3.326 ± 0.2

CCCC(C)=O + C1CCCC1
viscosity [mPa·s], [1], 101.33 kPa
Details	293.15 K	298.15 K	303.15 K
x2 = 0.0411	0.49 ± 0.009	0.463 ± 0.009	0.44 ± 0.008
x2 = 0.0966	0.481 ± 0.009	0.455 ± 0.008	0.431 ± 0.008
x2 = 0.1985	0.471 ± 0.009	0.445 ± 0.008	0.422 ± 0.008
x2 = 0.3214	0.458 ± 0.009	0.433 ± 0.008	0.41 ± 0.008
x2 = 0.3876	0.452 ± 0.008	0.428 ± 0.008	0.406 ± 0.008
x2 = 0.5026	0.443 ± 0.008	0.419 ± 0.008	0.398 ± 0.008
x2 = 0.6097	0.436 ± 0.008	0.414 ± 0.008	0.392 ± 0.008
x2 = 0.6934	0.433 ± 0.008	0.41 ± 0.008	0.39 ± 0.008
x2 = 0.7996	0.429 ± 0.008	0.407 ± 0.008	0.387 ± 0.008
x2 = 0.9054	0.429 ± 0.008	0.406 ± 0.008	0.386 ± 0.008
x2 = 0.9515	0.433 ± 0.008	0.41 ± 0.008	0.389 ± 0.008

ClC(Cl)(Cl)Cl + CCCCCCCCCCO
[1], 298.15 K, 101 kPa
Details	viscosity [mPa·s]
x2 = 0.05	1.031 ± 0.027
x2 = 0.097	1.224 ± 0.032
x2 = 0.15	1.441 ± 0.038
x2 = 0.2	1.775 ± 0.046
x2 = 0.39	3.091 ± 0.08
x2 = 0.49	4.012 ± 0.1
x2 = 0.59	5.08 ± 0.13
x2 = 0.8	7.86 ± 0.2

— the CheMixHub viscosity set
